Read-outs that look alike come from different tables or passages of the source.
What was measured:
[1] = molecular target: T1, chimeric 3′(2′),5′-bisphosphate nucleotidase (Saccharomyces cerevisiae, UniProt P32179); type: biochemical, Saccharomyces cerevisaie
T1 construct: His6 (C)
Text: (§1) Assay Principle. […] Through enzymatic coupling, the phosphatase substrate, adenosine 3′,5′-bisphosphate (PAP) was converted to hypoxanthine by a series of enzymatic reactions to generate uric acid and hydrogen peroxide (H2O2). H2O2 generated reacts with N-Ethyl-N-(2-hydroxy-3-sulfopropyl)-3-m-toluidine (EHSPT) and 4-aminoantipyrine (4-AA) in the presence of peroxidase (POD) to form a quinone dye which had maximal absorbance at 556 nm. The rate of the quinine dye formation was inversely proportion to the concentration of sodium in serum samples. The enzymatic coupling reaction scheme is shown below in Table 3:
Key Assay Characteristics. The sodium enzymatic assay was a two reagent (R1 and R2) based kinetic assay system. The results were obtained in 10 min by measuring absorbance at 550 nm. No off line pretreatment was needed.
(§2) Assay Procedure. • 1. Reconstituted R1 and R2 reagents as described in Reagent Preparation section and kept the reconstituted R1 and R2 reagents on ice bath. • 2. In a cuvette, mixed 180 μL of Reagent R1 and 20 μL of serum sample and incubated at 37° C. for 1 minute and then added 85 μL of Reagent 2. • 3. Read absorbance (550 nm) at 3 min (2 min after addition of Reagent 2) as A1. Incubated for a further 7 min and read the absorbance at 10 min as A2. • 4. Calculated ΔA=A2−A1
Calibration. This assay was calibrated daily using the enclosed low and high sodium standards. A calibration curve was constructed by plotting the ΔA values of the standards against the corresponding sodium concentrations. The sodium concentration of the sample was read from the calibration curve.

[2] = molecular target: T1, chimeric 3′(2′),5′-bisphosphate nucleotidase; experiment: biochemical; set-up: species or system Saccharomyces cerevisaie
Text: as §1, with “(H2O2). The” for “(H2O2).”, “reacted” for “reacts”, “lithium” for “sodium”, “6.” for “3:”
Key Assay Characteristics. The lithium enzymatic assay was a two reagent (R1 and R2) based kinetic assay system. The results were obtained in 10 min by measuring absorbance at 550 nm. No off line pretreatment was needed.
as §2, with “5” for “20”, “6 minutes” for “3 min (2 min after addition of Reagent 2)”, “3 more minutes” for “a further 7 min”, “9 minute” for “10 min”
Calibration and Quality Control. The assay was calibrated daily using the enclosed low and high lithium standards. The calibration curve was constructed by plotting the ΔA values of the standards against the corresponding lithium concentrations. The lithium concentration of the sample was read from the calibration curve. The assay should be calibrated daily.

T1 sequence (P32179 other isoform, or with tags, fused parts or gaps): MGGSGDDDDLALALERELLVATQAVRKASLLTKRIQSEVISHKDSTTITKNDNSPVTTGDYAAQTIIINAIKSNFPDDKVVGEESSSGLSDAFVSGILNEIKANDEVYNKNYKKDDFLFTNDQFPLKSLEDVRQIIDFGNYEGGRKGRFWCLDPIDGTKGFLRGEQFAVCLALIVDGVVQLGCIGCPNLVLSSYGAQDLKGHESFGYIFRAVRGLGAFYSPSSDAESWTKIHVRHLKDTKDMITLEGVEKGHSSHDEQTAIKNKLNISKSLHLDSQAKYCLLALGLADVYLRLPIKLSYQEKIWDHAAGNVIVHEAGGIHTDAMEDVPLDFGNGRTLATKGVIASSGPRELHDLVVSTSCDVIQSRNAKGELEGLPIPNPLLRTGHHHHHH

[Ca+2].[Cl-].[Cl-] [CaCl2]
Interference with sodium assay ([1]; substance at 5 mM): not interfered

[Ca+2] [Ca^2+]
Interference with lithium assay ([2]; substance at 4.0 mM): not interfered

[Cl][Cu][Cl] [CuCl2]
Interference with sodium assay ([1]; substance at 0.25 mM): not interfered

[Cu+2] [Cu^2+]
Interference with lithium assay ([2]; substance at 0.25 mM): not interfered

[Cl][Fe]([Cl])[Cl] [FeCl3]
Interference with sodium assay ([1]; substance at 0.25 mM): not interfered

[Fe+3] [Fe^3+]
Interference with lithium assay ([2]; substance at 0.25 mM): not interfered

[Cl-].[K+] [KCl]
Interference with sodium assay ([1]; substance at 10 mM): not interfered

[K+] [K^+]
Interference with lithium assay [2]: not interfered

[Mg+2] [Mg^2+]
Interference with lithium assay ([2]; substance at 2.0 mM): not interfered

Cl.N [NH4Cl]
Interference with sodium assay [1]: not interfered

N [NH4^+]
Interference with lithium assay ([2]; substance at 0.5 mM): not interfered

[Cl-].[Na+] [NaCl]
Interference with sodium assay [1]: not interfered

[Cl-].[Cl-].[Zn+2] [ZnCl2]
Interference with sodium assay ([1]; substance at 0.25 mM): not interfered

[Zn+2] [Zn^2+]
Interference with lithium assay ([2]; substance at 0.25 mM): not interfered

O=C1O[C@H]([C@@H](O)CO)C(O)=C1O [ascorbic acid]
Interference with sodium assay ([1]; substance at 5 mM): not interfered | Interference with lithium assay ([2]; substance at 5.0 mM): not interfered

[Li] [lithium, reference compound]
IC50 ([2]; read-out: IC50 (nucleotidase activity sensitive to lithium concentration)): 0.1 mM

[Na+] [sodium]
IC50 ([1]; read-out: IC50 (nucleotidase activity sensitive to sodium concentration)): 20 mM | Interference with lithium assay ([2]; substance at 200 mM): not interfered

KPi
Interference with sodium assay ([1]; substance at 1.5 mM): not interfered

triglyceride
Interference with sodium assay ([1]; substance at 250 mg/dl): not interfered
